In paper PMC5638539, “A mannitol/sorbitol receptor stimulates dietary intake in Tribolium castaneum” (PLoS ONE, 2017):

Columns and labels:
[1] = target: T1, TcGr20 (gustatory receptor 20) (Tribolium castaneum, UniProt D2A5I4); experiment: two-electrode voltage clamp in Xenopus oocytes expressing TcGr20, dose-response; water-injected control negative; format: cell-based
T1 construct: ORF of TcGr20 expressed in Xenopus oocytes
T1 sequence (D2A5I4 1-388): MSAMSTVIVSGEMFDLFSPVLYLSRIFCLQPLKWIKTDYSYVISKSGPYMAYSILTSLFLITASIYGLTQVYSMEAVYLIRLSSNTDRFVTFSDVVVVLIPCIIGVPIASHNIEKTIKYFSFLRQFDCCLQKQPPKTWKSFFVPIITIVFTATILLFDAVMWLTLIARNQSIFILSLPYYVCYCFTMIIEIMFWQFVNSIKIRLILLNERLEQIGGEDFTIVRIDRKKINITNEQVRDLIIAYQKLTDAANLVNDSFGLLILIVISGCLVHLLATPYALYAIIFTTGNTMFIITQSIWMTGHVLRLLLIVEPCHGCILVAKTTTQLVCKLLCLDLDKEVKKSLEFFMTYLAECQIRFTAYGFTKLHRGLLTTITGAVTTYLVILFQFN

[2] = target: T1, TcGr20 (gustatory receptor 20); experiment: two-electrode voltage clamp in Xenopus oocytes expressing TcGr20, dose-response; format: cell-based

`OC[C@@H](O)[C@@H](O)[C@H](O)[C@H](O)CO` [mannitol] gave an EC50 [1] of 72.6 ± 9.1 mM.
Work on `OC[C@@H](O)[C@@H](O)[C@H](O)[C@@H](O)CO` [sorbitol] yielded an EC50 [2] of 90.6 ± 10.4 mM.
